According to patent US12433959B2, “Injectable hydrogels for controlled release of immunomodulatory compounds” (THE BOARD OF TRUSTEES OF THE LELAND STANFORD JUNIOR …, priority 2018, dated 2025):
Blank lines part the entries; values can stand above or below the molecule they belong to.

Test: Hydrodynamic radius (MALS) and diffusivity of cargo in PBS
Format: physicochemical
Conditions: for diffusivity value, D: corresponding to RH
Description: Values closer to 1 indicate more similar diffusivities of the OVA and Poly(I:C) (n=3). […] Values closer to 1 indicate that cargo diffusivity is limited by self-diffusion of the hydrogel (n=3).
OVA's hydrodynamic radius (RH) is 3.2 nm, corresponding to a diffusivity value, D, of 76.6 μm^2/s. Poly(I:C)'s was measured to be much larger, with an RH of 34.2 nm, using multi-angle light scattering (MALS), corresponding to a D value of 7.2 μm^2/s. This difference in size results in OVA having an over 10 times greater diffusivity than Poly(I:C) in PBS (FIG. 3C). […] The measured diffusivities for all experiments can be found in FIG. 16. With a standard injection volume in rodents (100 μL) and the release characteristics of PNP hydrogels, these OVA diffusivities correlate to release timeframes of approximately 2 and 3 weeks, respectively. Further, the ratio of OVA to Poly(I:C) diffusivities (DOVA/DPoly(I:C)) was 3.3 in the 1:5 gel, and only 1.4 in the 2:10 gel (FIG. 3C). When comparing the diffusivity of OVA to the self-diffusion of the hydrogel matrix (DOVA/DGel), which was determined by tracking the diffusivity of HPMC-C12 within the hydrogel, the ratio was 6.5 in the 1:5 gel, but only 4.7 in the 2:10 gel, while the ratio of Poly(I:C) to the hydrogel self-diffusion (DPoly(I:C)/DGel) was around 2 for the 1:5 gel and 3.5 for the 2:10 gel (FIG. 3D). […] The diffusion of OVA, however, is more limited by hydrogel self-diffusion in the 2:10 gel and appears to be small enough to diffuse more freely in the 1:5 gel (FIG. 3B). Accordingly, the diffusivity of both OVA and Poly(I:C) is restricted by the self-diffusion of the hydrogel network in the 2:10 gel and are thus similar to one another, enabling sustained co-delivery of the two cargo, despite their large difference in physicochemical properties.

hydrodynamic radius (RH): 34.2 nm
size of Poly(I:C) relative to OVA: 10 times larger
diffusivity value, D (in PBS): 7.2 μm^2/s
Molecule: Polyinosinic-polycytidylic acid [Poly(I:C)]

B1: ovalbumin (protein, UniProt P01012 2-386, looked up)
Ovalbumin: GSIGAASMEFCFDVFKELKVHHANENIFYCPIAIMSALAMVYLGAKDSTRTQINKVVRFDKLPGFGDSIEAQCGTSVNVHSSLRDILNQITKPNDVYSFSLASRLYAEERYPILPEYLQCVKELYRGGLEPINFQTAADQARELINSWVESQTNGIIRNVLQPSSVDSQTAMVLVNAIVFKGLWEKAFKDEDTQAMPFRVTEQESKPVQMMYQIGLFRVASMASEKMKILELPFASGTMSMLVLLPDEVSGLEQLESIINFEKLTEWTSSNVMEERKIKVYLPRMKMEEKYNLTSVLMAMGITDVFSSSANLSGISSAESLKISQAVHAAHAEINEAGREVVGSAEAGVDAASVSEEFRADHPFLFCIKHIATNAVLFFGRCVSP
notes: commonly used model antigen
hydrodynamic radius (RH): 3.2 nm
diffusivity of OVA relative to Poly(I:C) (in PBS): over 10 times greater
diffusivity value, D (in PBS): 76.6 μm^2/s
